# Test system: HMOX1 in Normal Human Lung Fibroblasts (NHLF)
# Assay: HMOX1 Protein Expression (immunostaining, fold induction or % positive cells over DMSO)
# Conditions: for Hill slope of DMF dose response curves in Table 2: % Positive HMOX
structure (smiles),measurement,setting,value
"Cn1c(Nc2nc3ccc(C(F)(F)F)cc3s2)nc2cc(C(=O)NCCOCCO)ccc21 [HPP-D, 1-Methyl-2-(6-trifluoromethyl-benzothiazol-2-ylamino)-1H-benzoimidazole-5-carboxylic acid [2-(2-hydroxy-ethoxy)-ethyl]-amide]",Hill slope of DMF dose response curves in Table 2,Bach1 Inhibitor Conc. 0.019 uM,2.23
same,Hill slope of DMF dose response curves in Table 2,Bach1 Inhibitor Conc. 0.039 uM,1.69
same,Hill slope of DMF dose response curves in Table 2,Bach1 Inhibitor Conc. 0.078 uM,0.90
same,Hill slope of DMF dose response curves in Table 2,Bach1 Inhibitor Conc. 0.156 uM,0.23
same,% Cells Positive HMOX,"Cpd. 0.019 uM, DMF 0 uM",19.42%
same,Fold Induction of HMOX,"Cpd. 0.019 uM, DMF 0 uM",2.08 fold
same,% Cells Positive HMOX,"Cpd. 0.019 uM, DMF 0.03 uM",4.94%
same,Fold Induction of HMOX,"Cpd. 0.019 uM, DMF 0.03 uM",1.31 fold
same,% Cells Positive HMOX,"Cpd. 0.019 uM, DMF 0.1 uM",4.52%
same,Fold Induction of HMOX,"Cpd. 0.019 uM, DMF 0.1 uM",1.23 fold
same,% Cells Positive HMOX,"Cpd. 0.019 uM, DMF 0.3 uM",7.63%
same,Fold Induction of HMOX,"Cpd. 0.019 uM, DMF 0.3 uM",1.44 fold
same,% Cells Positive HMOX,"Cpd. 0.019 uM, DMF 1 uM",26.41%
same,Fold Induction of HMOX,"Cpd. 0.019 uM, DMF 1 uM",2.17 fold
same,% Cells Positive HMOX,"Cpd. 0.019 uM, DMF 3 uM",80.18%
same,Fold Induction of HMOX,"Cpd. 0.019 uM, DMF 3 uM",3.55 fold
same,% Cells Positive HMOX,"Cpd. 0.019 uM, DMF 10 uM",96.12%
same,Fold Induction of HMOX,"Cpd. 0.019 uM, DMF 10 uM",5.12 fold
same,% Cells Positive HMOX,"Cpd. 0.019 uM, DMF 30 uM",84.02%
same,Fold Induction of HMOX,"Cpd. 0.019 uM, DMF 30 uM",4.90 fold
same,% Cells Positive HMOX,"Cpd. 0.039 uM, DMF 0 uM",28.04%
same,Fold Induction of HMOX,"Cpd. 0.039 uM, DMF 0 uM",2.51 fold
same,% Cells Positive HMOX,"Cpd. 0.039 uM, DMF 0.03 uM",11.95%
same,Fold Induction of HMOX,"Cpd. 0.039 uM, DMF 0.03 uM",1.81 fold
same,% Cells Positive HMOX,"Cpd. 0.039 uM, DMF 0.1 uM",6.75%
same,Fold Induction of HMOX,"Cpd. 0.039 uM, DMF 0.1 uM",1.52 fold
same,% Cells Positive HMOX,"Cpd. 0.039 uM, DMF 0.3 uM",18.66%
same,Fold Induction of HMOX,"Cpd. 0.039 uM, DMF 0.3 uM",1.81 fold
same,% Cells Positive HMOX,"Cpd. 0.039 uM, DMF 1 uM",38.70%
same,Fold Induction of HMOX,"Cpd. 0.039 uM, DMF 1 uM",2.60 fold
same,% Cells Positive HMOX,"Cpd. 0.039 uM, DMF 3 uM",78.65%
same,Fold Induction of HMOX,"Cpd. 0.039 uM, DMF 3 uM",4.00 fold
same,% Cells Positive HMOX,"Cpd. 0.039 uM, DMF 10 uM",99.17%
same,Fold Induction of HMOX,"Cpd. 0.039 uM, DMF 10 uM",5.64 fold
same,% Cells Positive HMOX,"Cpd. 0.039 uM, DMF 30 uM",91.91%
same,Fold Induction of HMOX,"Cpd. 0.039 uM, DMF 30 uM",5.52 fold
same,% Cells Positive HMOX,"Cpd. 0.078 uM, DMF 0 uM",73.95%
same,Fold Induction of HMOX,"Cpd. 0.078 uM, DMF 0 uM",4.34 fold
same,% Cells Positive HMOX,"Cpd. 0.078 uM, DMF 0.03 uM",33.51%
same,Fold Induction of HMOX,"Cpd. 0.078 uM, DMF 0.03 uM",2.35 fold
same,% Cells Positive HMOX,"Cpd. 0.078 uM, DMF 0.1 uM",44.61%
same,Fold Induction of HMOX,"Cpd. 0.078 uM, DMF 0.1 uM",2.87 fold
same,% Cells Positive HMOX,"Cpd. 0.078 uM, DMF 0.3 uM",61.50%
same,Fold Induction of HMOX,"Cpd. 0.078 uM, DMF 0.3 uM",3.21 fold
same,% Cells Positive HMOX,"Cpd. 0.078 uM, DMF 1 uM",84.85%
same,Fold Induction of HMOX,"Cpd. 0.078 uM, DMF 1 uM",3.83 fold
same,% Cells Positive HMOX,"Cpd. 0.078 uM, DMF 3 uM",90.28%
same,Fold Induction of HMOX,"Cpd. 0.078 uM, DMF 3 uM",4.20 fold
same,% Cells Positive HMOX,"Cpd. 0.078 uM, DMF 10 uM",97.73%
same,Fold Induction of HMOX,"Cpd. 0.078 uM, DMF 10 uM",6.52 fold
same,% Cells Positive HMOX,"Cpd. 0.078 uM, DMF 30 uM",91.28%
same,Fold Induction of HMOX,"Cpd. 0.078 uM, DMF 30 uM",4.80 fold
same,% Cells Positive HMOX,"Cpd. 0.156 uM, DMF 0 uM",96.31%
same,Fold Induction of HMOX,"Cpd. 0.156 uM, DMF 0 uM",6.46 fold
same,% Cells Positive HMOX,"Cpd. 0.156 uM, DMF 0.03 uM",92.53%
same,Fold Induction of HMOX,"Cpd. 0.156 uM, DMF 0.03 uM",5.22 fold
same,% Cells Positive HMOX,"Cpd. 0.156 uM, DMF 0.1 uM",88.16%
same,Fold Induction of HMOX,"Cpd. 0.156 uM, DMF 0.1 uM",4.89 fold
same,% Cells Positive HMOX,"Cpd. 0.156 uM, DMF 0.3 uM",94.48%
same,Fold Induction of HMOX,"Cpd. 0.156 uM, DMF 0.3 uM",5.17 fold
same,% Cells Positive HMOX,"Cpd. 0.156 uM, DMF 1 uM",97.74%
same,Fold Induction of HMOX,"Cpd. 0.156 uM, DMF 1 uM",6.04 fold
same,% Cells Positive HMOX,"Cpd. 0.156 uM, DMF 3 uM",99.20%
same,Fold Induction of HMOX,"Cpd. 0.156 uM, DMF 3 uM",7.69 fold
same,% Cells Positive HMOX,"Cpd. 0.156 uM, DMF 10 uM",100.00%
same,Fold Induction of HMOX,"Cpd. 0.156 uM, DMF 10 uM",7.50 fold
same,% Cells Positive HMOX,"Cpd. 0.156 uM, DMF 30 uM",92.22%
same,Fold Induction of HMOX,"Cpd. 0.156 uM, DMF 30 uM",6.18 fold
same,combination effect in terms of the % HMOX positive cells,combination with DMF at concentrations below their maximum effect (Table 2),additive or greater than additive
same,change of Hill slope of the DMF dose response curve (FIG. 5),upon increasing amounts of the Bach1 Inhibitor,reduced
